We go through eight molecules from patent US10973831B2, “Fluoropiperidine compounds as pure 5-HT 6 receptor antagonists” (SUVEN LIFE SCIENCES LIMITED, priority 2017, dated 2021).

Data set [1] has as its target T1, recombinant human 5-HT2A (Homo sapiens, UniProt P28223).
T1 construct: purchased Perkin Elmer ES-313-M400UA
Description: Determination of 5-HT2A binding ([3H]-Ketanserin radioligand, membranes). The note with it: human 5-HT2A membranes, [3H]-Ketanserin 1.75 nM. As for the experimental part: Membrane preparation from recombinant human 5-HT2A cell line (Cat no. ES-313-M400UA) and radio ligand Ketanserin Hydrochloride, [Ethylene-^3H]-(R-41468) (Cat no. NET791250UC) were purchased from Perkin Elmer. All other reagents used in buffer preparation were purchased from Sigma. The final ligand concentration was 1.75 nM; non-specific determinant was 1-NP [10 μM] and 5-HT2A membrane protein (5 μg/well). 1-NP was used as a positive control. Reactions were carried out in 67 mM Tris pH 7.6 containing 0.5 mM EDTA buffer for 60 minutes at 25° C. Reaction was stopped by rapid filtration followed by six washes of the binding mixture using 96 well harvest plate (Millipore Cat no. MSFBNXB50) pre coated with 0.33% polyethyleneimine. The plate was dried and the bound radioactivity collected on the filters was determined by scintillation counting using MicroBeta TriLux. Radio ligand binding in the presence of non-labeled compound was expressed as a percent of the total binding and plotted against the log concentration of the compound. Ki values were determined using a nonlinear, iterative curve-fitting computer program of Graph pad Prism 4 software.

Data set [2] deals with T2, recombinant human 5-HT6 receptor (Homo sapiens, UniProt P50406).
T2 construct: expressed in transfected cells
T2 sequence (P50406 whole entry): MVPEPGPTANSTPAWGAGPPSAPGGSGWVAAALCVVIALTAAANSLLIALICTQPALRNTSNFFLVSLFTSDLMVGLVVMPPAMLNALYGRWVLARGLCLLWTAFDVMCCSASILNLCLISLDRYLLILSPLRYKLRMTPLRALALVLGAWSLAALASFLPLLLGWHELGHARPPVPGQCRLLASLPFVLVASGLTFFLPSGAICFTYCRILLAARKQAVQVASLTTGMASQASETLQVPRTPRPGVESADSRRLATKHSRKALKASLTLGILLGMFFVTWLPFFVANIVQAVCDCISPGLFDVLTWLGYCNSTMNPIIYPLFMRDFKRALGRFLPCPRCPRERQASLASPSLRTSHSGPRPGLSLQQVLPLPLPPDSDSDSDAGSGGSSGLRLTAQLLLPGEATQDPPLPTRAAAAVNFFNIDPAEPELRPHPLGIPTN
Description: Determination of Kb for 5-HT6 receptor (CHO cells, pCRE-Luc reporter, cAMP). Format: cell-based. The conditions noted are these: 10 μM serotonin, luciferase reporter. As for the experimental part: Determination of Kb for 5-HT6 Receptor: A stable CHO cell line expressing recombinant human 5-HT6 receptor and pCRE-Luc reporter system was used for cell based assay. The assay offers a non-radioactive based approach to determine binding of a compound to GPCRs. In this specific assay, the level of intracellular cyclic AMP which is modulated by activation or inhibition of the receptor is measured. The recombinant cells harbor luciferase reporter gene under the control of cAMP response element. The above cells were plated in 96 well clear bottom white plates at a density of 5×10^4 cells/well using Hams F12 medium containing 10% fetal bovine serum (FBS) and incubated overnight at 37° C. and 5% CO2 followed by serum starvation for 18-20 hrs. Increasing concentrations of test compounds were added along with 10 μM serotonin in Opti-MEM to the cells. The incubation was continued at 37° C. in CO2 incubator for 4 hours. After 4 hours cells were lysed using lysis buffer and luciferase assay buffer was added to each well and counts per second were recorded using luminescence counter. From counts per second (CPS) obtained, percent binding was calculated for each well by taking 10 μM 5-HT as 100% bound and vehicle as 0% bound. The percent bound values were plotted against compound concentrations and data were analyzed using a nonlinear, iterative curve-fitting computer program of Graph pad Prism 4 software. The Kb values were calculated using concentration of the agonist used in the assay.
A general note: A reporter such as luciferase makes a cellular process visible.

Data set [3] in a line: Non-clinical toxicology, repeated dose toxicity study in rat. Format: in vivo. The conditions noted are these: rat, female rats. As for the experimental part:
(§1) The safety of the example 1 of instant invention and comparator example of U.S. Pat. No. 7,378,415 were evaluated in repeated dose toxicity study in rat.
(§2) Female rats were used as experimental animals for evaluating the toxicity profile of example 1 of instant invention and the comparator example of U.S. Pat. No. 7,378,415.
(§3) During the study, female rats were dosed at incremental doses for minimum of 4 days. Toxicity assessment was done on the mortality, clinical observation, change in the body weight, feed consumption, clinical and anatomical pathology. Systemic exposures were also estimated for both of the compounds. All quantitative variables are compared with control group using one-way ANOVA followed by Dunnet's post-hoc test on GraphPad Prism Software version 4, 2003.

For data set [4], the system named is Female rats. The data set is described as above. Format: in vivo. The note with it: repeated dose toxicity. As for the experimental part: as §1, §2, §3

Counter-ions that a name gives are not always drawn.

T1 sequence (P28223 whole entry): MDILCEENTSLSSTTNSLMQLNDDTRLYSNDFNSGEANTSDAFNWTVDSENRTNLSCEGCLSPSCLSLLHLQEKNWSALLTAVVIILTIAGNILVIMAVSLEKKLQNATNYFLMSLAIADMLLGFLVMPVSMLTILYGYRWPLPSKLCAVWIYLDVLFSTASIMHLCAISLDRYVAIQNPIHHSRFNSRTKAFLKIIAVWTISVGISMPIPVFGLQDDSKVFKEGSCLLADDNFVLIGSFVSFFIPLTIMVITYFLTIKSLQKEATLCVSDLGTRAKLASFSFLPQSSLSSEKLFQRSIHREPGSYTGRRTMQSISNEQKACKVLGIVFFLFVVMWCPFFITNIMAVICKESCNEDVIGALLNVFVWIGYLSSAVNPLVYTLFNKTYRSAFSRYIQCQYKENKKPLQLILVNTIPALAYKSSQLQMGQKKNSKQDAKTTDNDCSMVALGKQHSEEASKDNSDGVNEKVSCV

The term Ki denotes the dissociation constant of the complex between target and ligand, obtained from inhibition or displacement. As for `O=S(=O)(c1ccccc1)c1ccc2c(c1)OCCN2C1CCNCC1F` (single isomer, unassigned; peak i) [Example 2, 7-Phenylsulfonyl-4-(3-fluoropiperidin-4-yl)-3,4-dihydro-2H-benzo[1,4]oxazine hydrochloride (Peak I)], the Ki in data set [1] was 262 nM. For the same molecule, the Kb in data set [2] is 0.4 nM.

For `O=S(=O)(c1ccccc1)c1ccc2c(c1)OCCN2C1CCNCC1F` (single isomer, unassigned; peak ii) [Example 3, 7-Phenylsulfonyl-4-(3-fluoropiperidin-4-yl)-3,4-dihydro-2H-benzo[1,4]oxazine hydrochloride (Peak II)], the inhibition constant (Ki) in data set [1] turned out to be 113 nM. Further, the Kb in data set [2] came out at 0.09 nM.

On to `O=S(=O)(c1ccccc1)c1ccc2c(c1)N(C1CCNCC1F)CCO2` (single isomer, unassigned; peak ii) [Example 15, 6-Phenylsulfonyl-4-(3-fluoropiperidin-4-yl)-3,4-dihydro-2H-benzo[1,41]oxazine (Peak II)], for which the Ki in data set [1] worked out at 1660 nM. For the same molecule, the Kb in data set [2] was found to be 1.25 nM.

Consider `O=S(=O)(c1cccc(F)c1)c1ccc2c(c1)OCCN2C1CCNCC1F` (single isomer, unassigned; peak iii) [Example 7, 7-(3-Fluorophenylsulfonyl)-4-(3-fluoropiperidin-4-yl)-3,4-dihydro-2H-benzo[1,4]oxazine hydrochloride (Peak III)], for which the Ki in data set [1] was 19.7 nM. In addition, in data set [2], the Kb is less than 0.1 nM.

Take `O=S(=O)(c1ccccc1)c1ccc2c(c1)OCCN2C1CCNCC1F` (single isomer, unassigned; peak iv) [Example 4, 7-Phenylsulfonyl-4-(3-fluoropiperidin-4-yl)-3,4-dihydro-2H-benzo[1,4]oxazine hydrochloride (Peak IV)]: in data set [1], the Ki stood at 3930 nM. Besides, the Kb in data set [2] worked out at 0.4 nM.

In the case of `O=S(=O)(c1cccc(F)c1)c1ccc2c(c1)OCCN2C1CCNCC1F` (single isomer, unassigned; peak iv) [Example 8, 7-(3-Fluorophenylsulfonyl)-4-(3-fluoropiperidin-4-yl)-3,4-dihydro-2H-benzo[1,4]oxazine hydrochloride (Peak IV)], the Ki in data set [1] was determined as 804 nM. Also, in data set [2], the Kb was found to be 19 nM.

With `O=S(=O)(c1ccccc1)c1ccc2c(c1)N(C1CCNCC1F)CCO2` (single isomer, unassigned; peak iv) [Example 17, 6-Phenylsulfonyl-4-(3-fluoropiperidin-4-yl)-3,4-dihydro-2H-benzo[1,41]oxazine (Peak IV)], in data set [1], the Ki was 907 nM. Further, in data set [2], the Kb stood at 1.79 nM.

By NOAEL is commonly meant the highest tested level that showed no adverse finding. The AUC is the area under the concentration-time curve, a measure of exposure. As usually defined, the Cmax is the maximum level reached in the sampled fluid or tissue. In data set [3] (in vivo, 7-Day repeat tox), `O=S(=O)(c1ccccc1)c1ccc2c(c1)OCCN2C1CCNCC1` [Comparator Example, 7-Phenylsulfonyl-4-(piperidin-4-yl)-3,4-dihydro-2H-benzo[1,4]oxazine, reference compound] came in with a no-observed-adverse-effect level (NOAEL) at 7 days of 30 mg/kg. Further, the MTD in data set [3] (in vivo, repeated incremental doses, read-out: Maximum Tolerated Dose) was determined as 30 mg/kg. Besides, the AUC in data set [3] (plasma, repeated dose toxicity study, read-out: AUC (systemic exposure in toxicity study)) was 4050 ng·h/mL. For the same molecule, the Cmax in data set [3] (plasma, repeated dose toxicity study, read-out: Cmax (systemic exposure in toxicity study)) stood at 280 ng/mL. The “Findings (mortality)” value was “Mortality at ≥” in data set [4] (listed as Comparator example of U.S. Pat. No. 7,378,415) and “deaths were observed at doses >100 mg/kg on second day of dosing” in data set [4] (listed as comparator example of U.S. Pat. No. 7,378,415). The Ki in data set [1] is 9.02 nM. Besides, the Kb in data set [2] amounted to 0.1 nM.
